{"source": "patent US5202338A", "about": "“Dihydroquinoline derivatives, pharmaceutical compositions and methods of use of dihydroquinoline derivatives as modulators of the arachidonic acid cascade” (priority 1990, dated 1993)", "key": {"cytochrome C and P 450": {"system": "cytochrome C and P 450", "test": "Cytochrome C and P450 activities in atherogenic-diet rats", "assay_type": "in vivo", "settings": "atherosclerosis induced by atherogenic diet in rats", "description": "During model-experiments of atherosclerosis induced by atherogenic diet in rats, the pathologic increase of cythochrome C and P 450 enzyme activities is to be observed. This is disadvantageous because these enhanced enzyme activities induce tissular lipid peroxidation, involving all of its well known untoward consequences. As the first step of this chain reaction superoxyde - anion radical is formed from molecular oxygen. Laitar however initiate further few radical reactions."}, "[1]": {"system": "hyperoxia (95% oxygen and 5% CO2)", "test": "Hyperoxia-inhibiting effect", "assay_type": "in vivo, rats", "protocol": "CFY rats with an average body weight of 250 g each, belonging to both sexes were kept in an atmosphere of 95% oxygen and 5% CO2. Three treatment groups were formed.\nGroup 2 (n=25): Hyperoxia was induced as described for Group 1, however, 20 mg/kg body weight/day i.v. Dexamethasone (steroid hormone preparation) was administered during the hyperoxia period. […] Autopsy and histological examinations were performed on the animals died and on the animals sacrificed on the 35th day.\nGroup 3 (n=25): Hyperoxia was induced as in the Groups mentioned above, but during the period of hyperoxia 65 mg/kg body weight of the compound according to Example 4 was administered i.v. The rate of death amounted to 4% (1 animal)."}, "[2]": {"system": "TXB2 formation in human leukocyte homogenate", "test": "TXB2 formation from arachidonic acid in human leukocyte homogenate (RIA)", "assay_type": "biochemical", "settings": "DMSO control 1.95 ± 0.31", "protocol": "The transformation of arachidonic acid to thromboxane B2 and leukotriene B4 in a human leukocyte homogenate was measured by means of the method published by Tetason, J. E. et al., Brit. J. Pharmacol., 1988 94:528-529, as follows: Fresh blood, from donors who had not ingested aspirin or other drugs for at least 14 days previously, was collected, with EDTA (1.2 mgml^-1) as anticoagulant; erythrocytes were sedimented by addition of 2% methyl cellulose (7.5 ml 100^-1 blood) and incubation for 40 minutes at 37° C. The supernatant containing leukocytes and platelets was removed, diluted two fold with sodium phosphate-buffered saline (0.9% NaCl, pH 7.2, 20 mM phosphate) and centrifuged for 10 minutes at 150 g. The supernatant, containing platelets, was removed and the leukocyte pellet resuspended in 50 ml of ice-cold 0.82% NH4 Cl containing 5 mM KCl (brought to pH 7.4 with 4.4% NaHCO3). This procedure lysed any remaining erythrocytes during 10 minutes incubation on ice. The leukocyte suspension was then centrifuged again (10 minutes, 150 g) and the pellet resuspended in 25 ml sodium phosphate buffer (50 mM, pH 7.0) containing EDTA (1 mM). […]\nDMSO was added. […] Reaction products, TXB2 and LTB4, were measured by specific radioimmunoassay (RIA) as published by Salmon, J. A. Prostaglandins, 1978 15: 383-397; and Salmon, J. A. et al., Prostaglandins, 1982, 24:225-235. […]"}, "Erlich ascites tumor": {"system": "Erlich ascites tumor", "test": "Tumor-inhibiting effect on the Erlich ascites tumor", "assay_type": "in vivo, mice", "protocol": "A daily oral dose of 150 mg/kg of body-weight of the compound prepared in Example 1 was administered to LATI-inbred CFLP male mice weighing 20 to 22 g each for 5 days, then 2×10^6 of Erlich ascites tumour cells were implanted under sterile conditions. Thereafter, the drug-treatment was continued and an examination was carried out on the 16th day following the implantation. An 80% inhibition was observed on the 17th day. The percentage of inhabitation was determined as described by Zs. Pollak in the dissertation entitled \"Development of a Radiosensitizing Antioxidant and Use Thereof in the Oncological Practice\" pages 44 to 45 and 76 to 82, as cited above."}, "gastric mucosa": {"system": "gastric mucosa", "test": "Protection of the gastric mucosa against ethanol", "assay_type": "in vivo, rats", "settings": "anhydrous ethanol + 100 mg/kg by gastric tube; ethanol only 21±0.31%", "protocol": "The protection of the gastric mucosa against the effect of ethanol was investigated. Ten CFY male rats weighing 200 to 220 g each were starved for 18 hours while allowing them to consume water ad libitum. Then, a dose of 50 or 100 mg/kg of body weight of the compound prepared in Example 1 was administered in such a way that the active agent had previously homogenized in an 1% aqueous methylcellulose solution for 1 minute. The substance was administered through a gastric tube. After 30 minutes, 1 ml of anhydrous ethanol each was orally given to the animals. Five minutes later the animals were decapitated under a general anaesthesia, their stomachs were removed, opened along the large curvature and washed with water. Thereafter the stomachs were stretched out and photographed. The alterations found on the gastric mucosa were observed by planimetry. The lesions were given as percentage of the whole surface."}, "[3]": {"test": "Acute toxicity study and determination of LD50", "assay_type": "in vivo", "settings": "rat, in vivo; oral, Wistar rats of both sexes", "protocol": "(§1) The Example was carried out in Wistar rats (Lati, Budapest) of both sexes weighing 150-160 g each. Doses of L90 were measured by an analytical balance, for each animal and suspended in 2 ml of paraffine oil while mixing at 60° C. Suspension was then cooled to room temperature and administered through a gastric tube. Animals were fed with standard rat feed (Lati, Budapest) and received water ad libitum. They were kept at a room temperature of 23 to 25° C. The relative humidity of room air amounted to 50-70 percent. Three study groups of animals were formed.\n(§2) The animals received a single dose of L90 amounting to 1 g/kg body weight.\n(§3) The animals received a single dose of L90 amounting to 5 g/kg body weight.\n(§4) The animals received a single dose of 2 ml of paraffine oil (control group).\n(§5) Animals were carefully observed on 10 subsequent days, after treatment. On day 11, the animals were sacrificed in general anesthesia. Autopsy of all animals was performed followed by the macroscopic examination of all organs."}, "Wistar rats": {"system": "Wistar rats", "test": "Acute toxicity study and determination of LD50", "assay_type": "in vivo", "protocol": "as §1, §2, §3, §4, §5"}, "[4]": {"system": "extrinsic bronchial asthma", "test": "Investigation of MTDQ in vivo in steroid-dependent asthma patients", "parameters": "species or system human", "protocol": "Four women and two men (with an average age of 41 years); between 17 and 56 years participated in this study, who suffered from extrinsic bronchial asthma, and had earlier been treated with at least 20 mg/day of prednisolone (11,17,21-trihydroxypregn-4-ene-3,20-dione) or with an equivalent steroidal hormone since 2 to 15 years of age. During the experimental period, the patients were kept on the treatment commonly used for bronchial asthma, except steroidal hormones.\nOn admission, their respiratory function characteristics were as follows:\nTheir sputum became more dilute and easy to eliminate. On auscultation, a soft vesicular respiration was again observed over their lungs. The X-ray picture of the lungs was in agreement with the clinical improvement.\nOn the fifteenth day of treatment, the respiratory functions were as follows:\nThe experiment described in Example 10 was repeated, except that daily 300 mg of allopurinol (Milurit®, EGIS Pharmaceutical Works) were daily administered simultaneously with the start of the MTDQ administration. […] In the case of a prolonged treatment, the daily amount of MTDQ could be decreased from 2500 mg to 1000-1200 mg by using this combination."}}, "note": "Where a name gives a salt, the structure may show the parent alone.", "data": [{"compound": "CC1=CC(C)(C)Nc2ccccc21", "note": "[2,2,4-trimethyl-1,2-dihydroquinoline]", "values": [{"measurement": "Normalization of increased Cytochrome C and P450 activities", "setting": "cytochrome C and P 450", "value": "did not exert this effect either"}]}, {"compound": "CC1(C)C=C(CS(=O)(=O)O)c2ccccc2N1", "note": "[2,2-dimethyl-4-methane-sulfonic acid salt-1,2-dihydroquinoline]", "values": [{"measurement": "Normalization of increased Cytochrome C and P450 activities", "setting": "cytochrome C and P 450", "value": "did not exert this effect either"}]}, {"compound": "NC(=O)c1nc[nH]c1N", "note": "[4-amino-5-imidozolcarboxidamide]", "values": [{"measurement": "Normalization of increased Cytochrome C and P450 activities", "setting": "cytochrome C and P 450", "value": "did not exert this effects"}]}, {"compound": "Oc1cc(O)c2c(c1)O[C@H](c1ccc(O)c(O)c1)[C@@H](O)C2", "note": "[(+) --Cyanidol]", "values": [{"measurement": "Normalization of increased Cytochrome C and P450 activities", "setting": "cytochrome C and P 450", "value": "did not exert this effects"}]}, {"compound": "CC(C)(S)[C@@H](N)C(=O)O", "note": "[D-Pencillamino]", "values": [{"measurement": "Normalization of increased Cytochrome C and P450 activities", "setting": "cytochrome C and P 450", "value": "did not exert this effects"}]}, {"compound": "C[C@@H]1C[C@H]2[C@@H]3CCC4=CC(=O)C=C[C@]4(C)[C@@]3(F)[C@@H](O)C[C@]2(C)[C@@]1(O)C(=O)CO", "note": "[Dexamethasone]", "values": [{"measurement": "Rate of survival", "setting": "[1]; 20 mg/kg/day i.v. during hyperoxia", "value": "did not improve"}, {"measurement": "PGF1C and TXB2 concentrations", "setting": "[1]; 20 mg/kg/day i.v., compared to physiological parameters", "value": "significantly lower"}, {"measurement": "Pathological lesions at autopsy and histology", "setting": "[1]; 20 mg/kg/day i.v., compared with Group 1", "value": "number and severity of the pathological lesions were found less than in Group 1"}]}, {"compound": "CC(=O)C(c1ccc2c(c1)C(C)=CC(C)(C)N2)c1ccc2c(c1)C(C)=CC(C)(C)N2", "note": "[Example 1, 6,6'-acetylmethine-bis(2,2,4-trimethyl-1,2-dihydroquinoline)]", "values": [{"measurement": "TXB2", "setting": "[2]; 20/μM compound", "value": "0.68 ± 0.14"}, {"measurement": "TXB2", "setting": "[2]; 100/μM compound", "value": "0.53 ± 0.08"}, {"measurement": "Tumor inhibition", "setting": "Erlich ascites tumor; 150 mg/kg oral daily, CFLP male mice, 17th day", "value": 80, "unit": "%"}, {"measurement": "Ascites ml.", "setting": "Erlich ascites tumor; 150 mg/kg, control 15.06 + 2.85", "value": "3.95 + 0.62 ml"}, {"measurement": "number of cells", "setting": "Erlich ascites tumor; 150 mg/kg, control 96.5 × 10^7 /ml", "value": "7.33e+07", "unit": "mL⁻¹"}, {"measurement": "Gastric mucosa lesions as percentage of the whole surface", "setting": "gastric mucosa", "value": "4.2±0.51", "unit": "%"}, {"measurement": "LD50 at 240 h", "setting": "[3]", "value": "> 5000", "unit": "mg/kg"}, {"measurement": "Survival and observations", "setting": "Wistar rats; single oral dose 1 g/kg, day 11", "value": "all rats were alive"}, {"measurement": "Mortality", "setting": "Wistar rats; single oral dose 5 g/kg, n=8, 10 days of observation", "value": "Two rats belonging to Group 2 died on day 8"}]}, {"compound": "CC(=O)C(c1ccc2c(c1)C(CS(=O)(=O)O)=CC(C)(C)N2)c1ccc2c(c1)C(CS(=O)(=O)O)=CC(C)(C)N2", "note": "[Example 4, sodium salt of 6,6'-acetylmethine-bis(2,2-dimethyl-1,2-dihydroquinoline-4-methanesulfonicacid)]", "values": [{"measurement": "Rate of death", "setting": "[1]; 65 mg/kg i.v. during hyperoxia, untreated 50% died", "value": 4, "unit": "%"}, {"measurement": "Pathological lesions at autopsy and histology", "setting": "[1]; 65 mg/kg i.v., animals sacrificed on 35th day", "value": "no pathological lesions were detected"}]}, {"compound": "CC1=CC(C)(C)Nc2ccc(Cc3ccc4c(c3)C(C)=CC(C)(C)N4)cc21", "note": "[MTDQ, 6,6'-methylene-bis(2,2,4-trimethyl-1,2-dihydroquinoline)]", "values": [{"measurement": "Omission of steroidal hormone", "setting": "[4]; MTDQ combined with 300 mg allopurinol daily", "value": "the steroidal hormone could immediately be omitted"}, {"measurement": "Daily amount of MTDQ needed in prolonged treatment", "setting": "[4]; combined with 300 mg allopurinol daily, decreased from 2500 mg", "value": "1000 to 1200", "unit": "mg"}, {"measurement": "Partial oxygen pressure in the arterial blood", "setting": "[4]; fifteenth day of treatment, MTDQ 25 mg/kg orally daily, steroid stopped on day 4", "value": "10.9±0.45", "unit": "kPa"}, {"measurement": "Forced expiratory volume", "setting": "[4]; fifteenth day of treatment, MTDQ 25 mg/kg orally daily, normal value 2.5 to 2.8", "value": "2.06 ± 0.8", "unit": "L"}, {"measurement": "Forced vital capacity", "setting": "[4]; fifteenth day of treatment, MTDQ 25 mg/kg orally daily, normal value 3.5 to 4", "value": "3.78 ± 0.33", "unit": "L"}, {"measurement": "Clinical improvement", "setting": "[4]; fifth day, MTDQ 25 mg/kg orally daily", "value": "the patients became attack-free"}]}, {"compound": "O=C1O[C@H]([C@@H](O)CO)C(O)=C1O", "note": "[Vitamin C]", "values": [{"measurement": "Normalization of increased Cytochrome C and P450 activities", "setting": "cytochrome C and P 450", "value": "did not exert this effects"}]}, {"compound": "Vitamin A", "values": [{"measurement": "Normalization of increased Cytochrome C and P450 activities", "setting": "cytochrome C and P 450", "value": "did not exert this effects"}]}]}
